Measured values taken from patent publication EP1344834A2, “Methods for the toxicity prediction of a compound” (F. HOFFMANN-LA ROCHE AG, priority 2002, dated 2003).
Like-named read-outs stand apart in the source and are kept apart here.

Experiments:
[1] = system: AH-R; conditions: rat, in vivo
Protocol: (§4) Male Wistar rats (generally 5 animals/dose-group) were purchased from BRL (Fullingsdorf, Switzerland) and housed individually. Treated animals were dosed either orally, intraperitoneally, or intravenously with several doses of test compounds (Table 1). The test compounds were categorized according to their toxic manifestation in the rat liver. Control animals received the same volume of vehicle as placebo. Necropsy was performed 6 or 24 hours after a single administration and liver samples from the left medial lobe were placed immediately in RNALater (Ambion, TX, USA) for RNA extraction and gene expression analysis. Samples in RNALater were stored at -20°C until further processing.
(§5) RNA isolation from hepatocytes was typically performed by resuspending approximately 3 Mio. Cells/1.2 mL RNAzol (Tel-Test Inc., TX, USA). […] Total RNA was isolated according to the manufacturer's instruction and quantified by measuring the optical density at 280 nm. The quality of RNA was assessed with gel electrophoresis.
(§6) The regulation of the mRNA levels of several candidate genes (Table 4) was verified with quantitative RT-PCR. […] For each performed RT-PCR reaction, the specificity of the assay was evaluated with dissociation curve software (Applied Biosystems), as well as by assessment of the size of the product using either gel electrophoresis or Agilent Bioanalyzer. […]

[2] = system: CYP2B2; conditions: rat, in vivo
Protocol: as §4
(§7) RNA isolation from hepatocytes was typically performed by resuspending approximately 3 Mio. Cells/1.2 mL RNAzol (Tel-Test Inc., TX, USA). […] Total RNA was isolated according to the manufacturer's instruction and quantified by measuring the optical density at 280 nm. The quality of RNA was assessed with gel electrophoresis. […]
(§8) After hybridization and scanning, the expression level of each gene was calculated by subtracting the fluorescence intensity of the mismatch probes from the match signal (=average difference) using the [sequence] […] Gene expression data were further analyzed with an in-house-developed data analysis tool (RACE-A, Hoffmann-La Roche, Basel, Switzerland). […]

[3] = system: AH-R; conditions: rat, in vivo; remark: listed apart in the source
Protocol: as §4, §7, §8

[4] = system: marker genes; conditions: rat, in vivo
Protocol: as §4, §5, §6

[5] = system: PC3 (BTG2); conditions: rat, in vivo
Protocol: as §4, §7, §8

[6] = system: CYP2B2; conditions: rat, in vivo; remark: listed apart in the source
Protocol: as §4, §5, §6

[7] = system: EGR1; assay: Gene expression analysis (GeneChip) of EGR1 after exposure of rats; format: in vivo; conditions: high inter-individual variability
Protocol: (§1) The quality of RNA was assessed with gel electrophoresis.
(§2) Tolcapone (Tasmar) is a human hepatotoxin with no known toxicity in the rat.

[8] = system: EGR-1; assay: Quantitative RT-PCR of EGR-1 in liver after in vivo dosing; design: species or system rats; conditions: every 12 Hours, sacrificed 3 hours after the last administration, control = 1.0
Protocol: as §1, §2

[9] = system: PEG3; assay: Quantitative RT-PCR of GADD-family genes in liver after in vivo dosing; design: species or system Wistar rats; conditions: control = 1.0
Protocol: as §1
(§3) The induction of these genes correlates with the histopathological findings in a time related fashion: While PEG-3 seems to be an early marker, GADD-45 and […] appear regulated at later time points, when the tissue damage is obvious by conventional endpoints.

[10] = system: Gadd153; assay: as above; design: species or system Wistar rats; conditions: control = 1.0
Protocol: as §1, §3

[11] = system: Gadd45; assay: as above; design: species or system Wistar rats; conditions: control = 1.0
Protocol: as §1, §3

[12] = system: genes from the GADD family; assay: RT-PCR confirmation of induction of GADD family genes by direct acting compounds; format: in vivo, Wistar rats; conditions: rat liver (summary of Table 9)
Protocol: as §1, §3

[13] = system: expression profile in liver; assay: Support Vector Machine classification of liver expression profiles; conditions: compounds not present in the initial training set; expression profiles of individual animals; Figures 8 and 9
Protocol: Adult male Wistar rats were dosed in vivo and the resulting expression profile in liver was determined. SVMs were built for the discrimination between 3 different classes of hepatotoxicants, non-toxic substances and controls. The training set consisted of 180 gene expression profiles from individual animals treated with direct acting, cholestatic, steatotic, non-toxic compounds and corresponding vehicle-dosed controls. As a first step the chips were rescaled to a median value of 0 and a standard deviation of 1. […] Multi-class classification for a given test chip was then carried out by combining the outputs of all binary. classifiers. A leave-one-out cross validation procedure was applied to assess the quality of the trained machines with respect to the training data. […] By removing all replicates of one compound from the training data, followed by classifying these chips with the resulting decision function, the individual contribution of the given compound for a successful classifier could be examined. RFE was used to investigate the relationship between the number of genes for generating the classifiers, the resulting prediction accuracy, cross-validation errors and the number of used support vectors. The first iteration reduced the gene count to a multiple of 2. In each subsequent iteration the gene count was halved until 32 genes remained. […]

[14] = system: CYP2B; assay: Western-blot of liver extracts with antibody specific for CYP2B; format: in vivo, rat
Protocol: In addition, Western blots were performed using specific antibodies against the cytochrome P450 CYP2B family in order to evaluate if the clear induction of messenger RNA also led to an increase in the hepatic protein levels. […] This is due to the time lag between protein and mRNA induction (Fig. 11).

[15] = system: marker genes; assay: RT-PCR of marker genes, differentiation of toxic and non-toxic 5-HT6 receptor antagonists (Fig. 10); conditions: rat liver, some of the selected genes
Protocol: as §4, §5, §6

[16] = 4500 mmol/kg, sampling time 2 hours
[17] = 4500 mmol/kg, sampling time 6 hours
[18] = 4500 mmol/kg, sampling time 24 hours
[19] = 2 mg/kg, sampling time 24 hours
[20] = 10 mg/kg, sampling time 6 hours
[21] = 10 mg/kg, sampling time 24 hours
[22] = 50 mg/kg, sampling time 6 hours
[23] = 10 mg/kg, sampling time 2 hours
[24] = 60 mg/kg, sampling time 2 hours
[25] = 60 mg/kg, sampling time 6 hours
[26] = 60 mg/kg, sampling time 24 hours

Nc1ccc(S(=O)(=O)c2cc(Br)nc(N3CCCC3)c2)cc1 [Ro66-0074, 4-(2-Bromo-6-pyrrolidin-1-yl-pyridine-4-sulfonyl)-phenylamine]
AH-R RT-PCR ([1]; 360 min): 1.7
AH-R RT-PCR ([1]; 1440 min): 1.2
CYP2B2 Affymetrix ([2]; 360 min): -1.2
CYP2B2 Affymetrix ([2]; 1440 min): 1.1
AH-R Affymetrix ([3]; 360 min): 1.0
AH-R Affymetrix ([3]; 1440 min): 1.0
expression levels of few marker genes (RT-PCR, Fig. 10) [4]: slight induction
PC3 (BTG2) Affymetrix ([5]; 360 min): 0.4
PC3 (BTG2) Affymetrix ([5]; 1440 min): 0.6
CYP2B2 RT-PCR ([6]; 360 min): 8.4
CYP2B2 RT-PCR ([6]; 1440 min): 1.3

Cc1ccc(C(=O)c2cc(O)c(O)c([N+](=O)[O-])c2)cc1 [Tolcapone (Tasmar), Tolcapone]
induction of EGR1 ([7]; high dose 300 mg/kg): slight induction
PCR EGR-1 ([8]; 300 mg/kg administered three times): 17.6 fold induction

Clc1ccc(Cl)cc1 [1,4-dichlorobenzene]
PCR PEG3 ([9]; sampling time 2 hours): 0.8 fold induction
PCR PEG3 ([9]; sampling time 6 hours): 0.7 fold induction
PCR PEG3 ([9]; sampling time 24 hours): 4.2 fold induction
PCR Gadd153 ([10]; sampling time 2 hours): 1.0 fold induction
PCR Gadd153 ([10]; sampling time 6 hours): 0.9 fold induction
PCR Gadd153 ([10]; sampling time 24 hours): 2.4 fold induction
PCR Gadd45 [11, 16]: 1.7 fold induction
PCR Gadd45 [11, 17]: 0.8 fold induction
PCR Gadd45 [11, 18]: 7.2 fold induction

CC(=N)S [Thioacetamide]
PCR PEG3 ([9]; 2 mg/kg, sampling time 6 hours): 2.0 fold induction
PCR PEG3 [9, 19]: 0.9 fold induction
PCR PEG3 [9, 20]: 1.9 fold induction
PCR PEG3 [9, 21]: 0.5 fold induction
PCR PEG3 [9, 22]: 7.8 fold induction
PCR Gadd153 ([10]; 2 mg/kg, sampling time 6 hours): 0.9 fold induction
PCR Gadd153 [10, 19]: 0.0 fold induction
PCR Gadd153 [10, 20]: 1.3 fold induction
PCR Gadd153 [10, 21]: 0.9 fold induction
PCR Gadd153 [10, 22]: 2.5 fold induction
PCR Gadd45 ([11]; 2 mg/kg, sampling time 6 hours): 8.1 fold induction
PCR Gadd45 [11, 19]: 0.0 fold induction
PCR Gadd45 [11, 20]: 2.9 fold induction
PCR Gadd45 [11, 21]: 1.7 fold induction
PCR Gadd45 [11, 22]: 27.6 fold induction
induction of genes from the GADD family, namely GADD-45, GADD-153 and PEG-3 [12]: induction

CCN(CC)C(=O)/C(C#N)=C/c1cc(O)c(O)c([N+](=O)[O-])c1 [Entacapone]
PCR EGR-1 ([8]; 600 mg/kg administered three times): 1.0 fold induction

NN [Hydrazine]
PCR PEG3 [9, 23]: 3.4 fold induction
PCR PEG3 [9, 20]: 6.3 fold induction
PCR PEG3 [9, 21]: 2.1 fold induction
PCR PEG3 [9, 24]: 20.4 fold induction
PCR PEG3 [9, 25]: 3.8 fold induction
PCR PEG3 [9, 26]: 11.9 fold induction
PCR Gadd153 [10, 23]: 2.2 fold induction
PCR Gadd153 [10, 20]: 4.0 fold induction
PCR Gadd153 [10, 21]: 0.4 fold induction
PCR Gadd153 [10, 24]: 1.0 fold induction
PCR Gadd153 [10, 25]: 0.9 fold induction
PCR Gadd153 [10, 26]: 1.7 fold induction
PCR Gadd45 [11, 23]: 1.1 fold induction
PCR Gadd45 [11, 20]: 9.9 fold induction
PCR Gadd45 [11, 21]: 0.2 fold induction
PCR Gadd45 [11, 24]: 1.0 fold induction
PCR Gadd45 [11, 25]: 1.8 fold induction
PCR Gadd45 [11, 26]: 1.0 fold induction
induction of genes from the GADD family, namely GADD-45, GADD-153 and PEG-3 [12]: induction

Clc1ccccc1Cl [1,2-dichlorobenzene]
classification by support vector machines (identification of compound class) [13]: direct acting compound
PCR PEG3 ([9]; sampling time 2 hours): 3.9 fold induction
PCR PEG3 ([9]; sampling time 6 hours): 1.9 fold induction
PCR PEG3 ([9]; sampling time 24 hours): 54.6 fold induction
PCR Gadd153 ([10]; sampling time 2 hours): 0.9 fold induction
PCR Gadd153 ([10]; sampling time 6 hours): 0.6 fold induction
PCR Gadd153 ([10]; sampling time 24 hours): 27.9 fold induction
PCR Gadd45 [11, 16]: 2.3 fold induction
PCR Gadd45 [11, 17]: 4.9 fold induction
PCR Gadd45 [11, 18]: 53.0 fold induction
induction of genes from the GADD family, namely GADD-45, GADD-153 and PEG-3 [12]: induction

O=[N+]([O-])c1ccc(O)c([N+](=O)[O-])c1 [Dinitrophenol]
induction of EGR1 ([7]; 10 and 30 mg/kg): slight induction
PCR EGR-1 ([8]; 10 mg/kg administered three times): 3.4 fold induction
PCR EGR-1 ([8]; 30 mg/kg administered three times): 8.5 fold induction

(4-Amino-N-(6-bromo-1 H -indol-4-yl)-benzenesulfonamide [Ro65-7199]
induction of CYP2B (hepatic protein levels, Western blot) ([14]; 6 hours after administration): could not be detected
protein levels of CYP2B (Western blot) ([14]; 24 hours and 7 days after treatment): closely paralleled the amounts of mRNA
expression levels of few marker genes (RT-PCR, Fig. 10) [15]: larger effect

O=C(O)CCCCCCNC1c2ccccc2CCc2ccccc21 [amineptine]
classification by support vector machines (identification of compound class) [13]: steatotic compound
